# In patent US12018027B2, “Macrocyclic derivatives acting as XIa factor inhibitor” (CHINA RESOURCES BIOPHARMACEUTICAL COMPANY LIMITED, priority 2019, dated 2024):
# What was measured:
# Human Factor XIa = Human Factor XIa (Homo sapiens (Human), UniProt P03951); assay: Screening assay for inhibitory activity against enzyme hFXIa (human factor XIa); assay type: biochemical; settings: substrate S-2366, pH 7.4, 37° C., absorbance 405 nm
# Procedure: 1. Screening Assay for Inhibitory Activity against Enzyme hFXIa (Human Factor XIa)
# To Test the Inhibitory Activity of the Compounds Disclosed herein Against Human Factor XIa
# 100 mM Tris-HCl (Sigma, Cat. No.: T2663, Lot No.: SLBG2775)
# Enzyme: Human Factor XIa (Abcam, Cat No.: ab62411), total amount of 50 μg; dissolved in assay buffer and packaged.
# 3) Instruments and consumables
# SpectraMax 340PC multifunctional microplate reader (Molecular Devices)
# 384-well black transparent reaction plate (Corning, Cat. No.: 3712)
# Echo liquid workstation (Labcyte)
# A 384-well polypropylene compound plate (Labcyte-P-05525) was used in Echo
# A 384 shallow-well polypropylene compound plate (Labcyte-LP-0200, 2.5-12 μL) was used in Echo
# Mutidrop automatic dispenser (Thermo Scientific)
# Mutidrop consumables (Thermo Scientific-24073290)
# Test compounds were each dissolved in DMSO to prepare a 10 mM solution and stored in a nitrogen cabinet.
# 1) Preparation for compounds
# All test compounds were prepared using Echo, subjected to gradient dilution and transferred to a 384-well reaction plate at 100 nL. The reference compound and the test samples, with an initial concentration of 200 μM, were subjected to 3-fold dilution to get 10 concentrations (the final concentration was 1 μM). To high signal wells were added DMSO, and to low signal wells were added 100 μM reference compound. Reference can be made to the sample distribution for distributions of samples and control.
# 1) Preparation for enzyme human factor XIa
# Enzyme human factor XIa was diluted to 0.5 μg/mL with assay buffer.
# 3) Preparation for substrate S-2306
# S-2306 was prepared at a concentration of 1 mM using the assay buffer.
# 4) 10 μL of 0.5 μg/mL enzyme human factor XIa was added to the reaction plate using a Mutidrop automatic dispenser and the final concentration was 5 ng/well.
# 5) 10 μL of 1 mM S-2306 was added to the reaction plate using a Mutidrop automatic dispenser and the final concentration was 0.5 mM.
# 6) Centrifugation was performed at 1000 rpm for 10 s.
# 7) The reaction plate was incubated in SpectraMax 340PC at 37° C. for 10 min and the absorbance was measured at 405 nm.
# 8) Data were analyzed using GraphPad Prism 5.0.
# % inhibition rate=100%×[1—(sample reading—mean of low signal wells)/(mean of high signal wells—mean of low signal wells)]
# IC50 was analyzed using […]:
# Y=Bottom+(Top−Bottom)/(1+10^((LogIC50−X)*Hill Slope))
# Y is % inhibition rate and X is the logarithm of the sample concentration.
# human plasma = assay: Human plasma in vitro aPTT (activated partial thromboplastin time); assay type: biochemical
# Procedure: 2. Testing of Human Plasma in vitro aPTT (Activated Partial Thromboplastin Time)
# To test the anticoagulant effect of the compounds disclosed herein against human plasma in vitro
# 1) Plasma: fresh human venous blood was mixed well with 0.109 M sodium citrate at a ratio of 9:1, and then the mixture was centrifuged at 3000 rpm for 15 min. The upper plasma was collected and tested within 2-5 h.
# 2) Reagents: aPTT reagent (activated partial thromboplastin time kit, mindray), PT reagent (prothrombin time kit, mindray), and calcium chloride solution.
# 3) Instruments: coagulometer (Beijing Precil, C2000-4).
# Test compounds were each dissolved in DMSO to prepare a 10 mM stock solution. The plasma was serially diluted to 400 μM, 200 μM, 100 μM, 50 μM, 25 μM, 12.5 μM, 6.25 μM, 3.125 μM, 1.563 μM, 0.781 μM, 0.390 μM and 0.195 μM with the 10 mM stock solution of each compound, and the blank control was 100% DMSO. The reagents, plasma and compounds were placed at corresponding positions in a coagulometer to detect the aPTT and PT of the compounds.
# The concentrations of compounds corresponding to aPTT2× and PT2× (i.e., aPTT and PT of 2-fold blank control) were calculated by Prism curve fitting and the results are shown in Table 2 below: […]
# Pharmacokinetics in rats = assay type: in vivo; settings: male SD rats
# Procedure: 3. Pharmacokinetics in Rats
# To determine the pharmacokinetic parameters of the compounds disclosed herein in rats
# 1) Experimental drug: compound 1-2;
# 2) Experimental animals: 4 male SD rats aged 7-9 weeks, randomly divided into 2 groups, 2 rats for each group;
# 3) Drug preparation: a proper amount of the drug was weighed out and dissolved in a mixed solvent of DMAC:solutol:water=10:10:80 to prepare two solutions of 0.2 mg/mL and 0.5 mg/mL, respectively;
# Animals in group 1 were administered with the 0.2 mg/mL drug at a dose of 0.5 mg/kg by single injection via the tail vein, and animals in group 2 were administered with the 0.5 mg/mL compound at a dose of 3 mg/kg by gavage. Animal plasma samples were collected 0.0833 (only the tail vein injection group), 0.25, 0.5, 1, 2, 4, 6, 8 and 24 h after administration. The drug concentration in plasma samples was determined using LC-MS/MS method, and the kinetic parameters of the test drug are shown in Table 3: […]
# Human Factor XIa, sequence (P03951 388-625): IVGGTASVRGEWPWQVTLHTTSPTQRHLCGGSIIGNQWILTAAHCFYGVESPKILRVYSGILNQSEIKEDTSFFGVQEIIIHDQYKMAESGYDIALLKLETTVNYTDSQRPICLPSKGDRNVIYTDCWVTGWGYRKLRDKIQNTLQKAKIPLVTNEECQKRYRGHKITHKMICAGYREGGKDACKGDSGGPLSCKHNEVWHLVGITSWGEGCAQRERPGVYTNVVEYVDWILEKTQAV
# Human Factor XIa, sequence (P03951 19-387 partner): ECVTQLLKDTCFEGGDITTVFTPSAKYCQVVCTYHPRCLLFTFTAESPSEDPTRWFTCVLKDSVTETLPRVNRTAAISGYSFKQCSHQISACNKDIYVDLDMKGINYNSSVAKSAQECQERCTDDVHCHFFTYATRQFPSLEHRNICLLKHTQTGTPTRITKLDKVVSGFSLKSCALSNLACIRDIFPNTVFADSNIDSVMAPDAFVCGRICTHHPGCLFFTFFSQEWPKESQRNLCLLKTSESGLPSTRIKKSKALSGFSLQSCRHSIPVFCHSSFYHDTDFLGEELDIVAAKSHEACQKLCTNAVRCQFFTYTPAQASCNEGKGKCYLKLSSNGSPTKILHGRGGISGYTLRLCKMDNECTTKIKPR
compound,measurement,setting,value
"CCOc1cn(-c2ccc(Cl)cc2-c2ccc([C@@H]3CCC[C@@H](C)C(=O)Nc4cnn(C(F)F)c4-c4ccnc3c4)c(=O)o2)nn1 (single isomer, unassigned) [Compound 6-2]",IC50,Human Factor XIa,20.4 nM
"C[C@@H]1CCC[C@@H](c2ccc(-c3cc(Cl)ccc3-n3cc(C(F)F)nn3)oc2=O)c2cc(ccn2)-c2c(cnn2C(F)F)NC1=O (single isomer, unassigned) [Compound 3-1]",aPTT2× (concentration giving aPTT of 2-fold blank control),human plasma,1.37 µM
same,IC50,Human Factor XIa,3.81 nM
C[C@@H]1CCC[C@@H](c2ccc(-c3cc(Cl)ccc3-n3ccnn3)oc2=O)c2cc(ccn2)-c2c(cnn2C(F)F)NC1=O [Compound 2-1],aPTT2× (concentration giving aPTT of 2-fold blank control),human plasma,0.65 µM
same,IC50,Human Factor XIa,3.39 nM
"C[C@@H]1CCC[C@@H](c2ccc(-c3cc(Cl)ccc3-n3cc(Cl)nn3)oc2=O)c2cc(ccn2)-c2c(cnn2C(F)F)NC1=O (single isomer, unassigned) [Compound 1-2]",aPTT2× (concentration giving aPTT of 2-fold blank control),human plasma,0.87 µM
same,IC50,Human Factor XIa,3.9 nM
same,Bioavailability F,Pharmacokinetics in rats; gavage 3 mg/kg vs tail vein injection 0.5 mg/kg,37.1%
same,Area under curve AUC,"Pharmacokinetics in rats; gavage, 3 mg/kg",5.205 µM·h
same,Time of peak concentration T1/2,"Pharmacokinetics in rats; gavage, 3 mg/kg",3 h
same,Cmax,"Pharmacokinetics in rats; gavage, 3 mg/kg, read-out: Peak concentration Cmax",0.986 µM
same,Area under curve AUC,"Pharmacokinetics in rats; tail vein injection, 0.5 mg/kg",2.339 µM·h
same,Clearance Cl,"Pharmacokinetics in rats; tail vein injection, 0.5 mg/kg",0.339 L/h/kg
same,Half life T1/2,"Pharmacokinetics in rats; tail vein injection, 0.5 mg/kg",1.04 h
same,Volume of distribution Vd,"Pharmacokinetics in rats; tail vein injection, 0.5 mg/kg",0.533 L/kg
same,C0,"Pharmacokinetics in rats; tail vein injection, 0.5 mg/kg, read-out: Initial concentration C0",1.8 µM
C[C@@H]1CCC[C@H](c2ccc(-c3cc(Cl)ccc3-n3ccnn3)oc2=O)c2cc(ccn2)-c2c(cnn2C(F)F)NC1=O [Compound 2-2],IC50,Human Factor XIa,10.7 nM
"C[C@@H]1CCC[C@@H](c2ccc(-c3cc(Cl)ccc3-n3cc(C4CC4)nn3)oc2=O)c2cc(ccn2)-c2c(cnn2C(F)F)NC1=O (single isomer, unassigned) [Compound 4-1]",IC50,Human Factor XIa,21.7 nM
"C[C@@H]1CCC[C@@H](c2ccc(-c3cc(Cl)ccc3-n3cc(Cl)nn3)n(C)c2=O)c2cc(ccn2)-c2c(cnn2C(F)F)NC1=O (single isomer, unassigned) [Compound 5-1]",IC50,Human Factor XIa,8.22 nM
"C[C@H]1CCC[C@@H](c2ccc(-c3cc(Cl)ccc3-n3cc(Cl)nn3)oc2=O)c2cc(ccn2)-c2c(cnn2C(F)F)NC1=O (single isomer, unassigned) [Compound 1-4]",IC50,Human Factor XIa,34.1 nM
